Reference: patent US20220120736A1, “METHODS AND ASSAYS FOR MODULATING GENE TRANSCRIPTION BY MODULATING CONDENSATES” (Whitehead Institute for Biomedical Research, priority 2018, published 2022)

How the values were obtained:
OCT4 (FKBP-tagged) [1] = biological target: T1, OCT4 (FKBP-tagged) (Mus musculus, UniProt P20263+Q8C7D2); test: ChIP-seq after OCT4 degradation in OCT4-FKBP ESCs; assay type: cell-based; details: dTag 24 hours versus DMSO
T1 construct: an ESC line bearing endogenous knock-in of DNA encoding the FKBP protein fused to OCT4; HA (C); endogenous in cells; host or cells: V6.5 mouse ES cells (Med1-mEGFP background), homozygous Oct4-FKBP knock-in
T1 sequence (P20263 with tags, fused parts or gaps): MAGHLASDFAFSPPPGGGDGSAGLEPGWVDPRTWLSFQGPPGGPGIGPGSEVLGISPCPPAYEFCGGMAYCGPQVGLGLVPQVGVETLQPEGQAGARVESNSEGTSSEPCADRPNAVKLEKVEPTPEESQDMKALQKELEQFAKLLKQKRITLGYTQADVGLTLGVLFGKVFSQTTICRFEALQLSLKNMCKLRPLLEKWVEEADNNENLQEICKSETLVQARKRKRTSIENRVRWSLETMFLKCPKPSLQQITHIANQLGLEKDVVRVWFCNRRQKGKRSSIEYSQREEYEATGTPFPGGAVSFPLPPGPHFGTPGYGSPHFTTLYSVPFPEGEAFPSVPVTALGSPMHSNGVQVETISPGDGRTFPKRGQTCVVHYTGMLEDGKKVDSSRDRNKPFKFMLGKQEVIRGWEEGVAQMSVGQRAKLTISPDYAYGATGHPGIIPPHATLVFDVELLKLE
T1 sequence (Q8C7D2 whole entry, the tested form may be a part): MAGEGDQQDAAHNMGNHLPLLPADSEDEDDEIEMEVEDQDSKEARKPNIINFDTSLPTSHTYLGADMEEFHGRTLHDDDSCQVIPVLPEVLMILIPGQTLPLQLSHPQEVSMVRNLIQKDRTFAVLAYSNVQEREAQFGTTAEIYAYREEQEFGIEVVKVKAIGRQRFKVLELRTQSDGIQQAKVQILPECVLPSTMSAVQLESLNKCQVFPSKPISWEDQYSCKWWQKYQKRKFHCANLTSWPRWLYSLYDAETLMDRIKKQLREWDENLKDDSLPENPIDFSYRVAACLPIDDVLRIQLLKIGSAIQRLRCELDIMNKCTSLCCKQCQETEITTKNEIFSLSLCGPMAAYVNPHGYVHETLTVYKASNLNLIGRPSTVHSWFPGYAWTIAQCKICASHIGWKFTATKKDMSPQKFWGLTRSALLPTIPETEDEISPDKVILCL
T1 sequence (Q3U1J4 whole entry partner, the tested form may be a part): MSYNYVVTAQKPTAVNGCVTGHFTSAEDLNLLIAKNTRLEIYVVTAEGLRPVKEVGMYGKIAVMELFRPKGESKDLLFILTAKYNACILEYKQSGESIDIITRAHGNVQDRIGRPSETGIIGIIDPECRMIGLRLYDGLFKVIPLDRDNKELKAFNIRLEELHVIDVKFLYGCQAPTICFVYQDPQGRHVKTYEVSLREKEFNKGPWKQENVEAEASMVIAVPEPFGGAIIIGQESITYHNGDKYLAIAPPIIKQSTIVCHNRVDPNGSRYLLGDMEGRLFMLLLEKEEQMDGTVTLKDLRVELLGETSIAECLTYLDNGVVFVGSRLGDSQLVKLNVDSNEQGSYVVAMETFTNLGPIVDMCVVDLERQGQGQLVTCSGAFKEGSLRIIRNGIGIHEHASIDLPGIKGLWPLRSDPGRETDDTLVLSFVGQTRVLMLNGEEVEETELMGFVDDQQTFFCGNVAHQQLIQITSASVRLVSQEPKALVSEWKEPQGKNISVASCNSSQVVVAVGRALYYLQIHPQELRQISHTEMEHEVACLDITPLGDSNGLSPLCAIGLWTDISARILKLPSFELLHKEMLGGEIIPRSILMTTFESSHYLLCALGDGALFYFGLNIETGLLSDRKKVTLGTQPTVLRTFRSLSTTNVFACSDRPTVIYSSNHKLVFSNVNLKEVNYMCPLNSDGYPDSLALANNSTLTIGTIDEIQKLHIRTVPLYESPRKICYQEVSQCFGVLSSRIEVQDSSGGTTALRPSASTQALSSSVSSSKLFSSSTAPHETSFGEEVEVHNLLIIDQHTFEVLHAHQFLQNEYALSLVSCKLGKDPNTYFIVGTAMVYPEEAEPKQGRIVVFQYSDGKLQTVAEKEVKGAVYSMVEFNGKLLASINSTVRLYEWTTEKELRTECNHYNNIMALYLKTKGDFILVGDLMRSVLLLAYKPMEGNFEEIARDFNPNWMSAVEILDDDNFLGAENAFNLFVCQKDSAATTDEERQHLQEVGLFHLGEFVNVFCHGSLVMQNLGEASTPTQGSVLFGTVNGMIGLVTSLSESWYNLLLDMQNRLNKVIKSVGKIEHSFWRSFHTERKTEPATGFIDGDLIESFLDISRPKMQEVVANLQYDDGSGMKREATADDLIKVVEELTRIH
Description: mES were grown to 80% confluence in 2i media. 1% formaldehyde in PBS was used for crosslinking of cells for 15 minutes, followed by quenching with Glycine at a final concentration of 125 mM on ice. Cells were washed with cold PBS and harvested by scraping cells in cold PBS. Collected cells were pelleted at 1000 g for 3 minutes at 4° C., flash frozen in liquid nitrogen and stored at −80° C. All buffers contained freshly prepared cOmplete protease inhibitors (Roche, 11873580001). […] The pellet was resuspended in sonication buffer (20 mM Tris-HCl pH 8.0, 150 mM NaCl, 2 mM EDTA pH 8.0, 0.1% SDS, and 1% Triton X-100, 1 3 protease inhibitors) and then sonicated on a Misonix 3000 sonicator for 10 cycles at 30 s each on ice (18-21 W) with 60 s on ice between cycles. Sonicated lysates were cleared once by centrifugation at 16,000 rcf. for 10 minutes at 4° C. Input material was reserved and the remainder was incubated overnight at 4° C. with magnetic beads bound with antibody (Table S4) to enrich for DNA fragments bound by the indicated factor. […]
ChIP-Seq data were aligned to the mm9 version of the mouse reference genome using bowtie with parameters -k 1 -m 1 -best and -l set to read length. […]

OCT4 (FKBP-tagged) [2] = biological target: T1, OCT4 (FKBP-tagged); test: MED1 IF with DNA FISH at Nanog after OCT4 degradation; assay type: cell-based; details: dTag versus DMSO
Description: Immunofluorescence was performed as previously above. After incubating the cells with the secondary antibodies, cells were washed three times in PBS for 5 min at RT, fixed with 4% PFA in PBS for 10 min and washed three times in PBS. Cells were incubated in 70% ethanol, 85% ethanol and then 100% ethanol for 1 minute at RT. Probe hybridization mixture was made mixing 7 μL of FISH Hybridization Buffer (Agilent G9400A), 1 μl of FISH probes (see below for region) and 2 μL of water. 5 μL of mixture was added on a slide and coverslip was placed on top (cell-side toward the hybridization mixture). Coverslip was sealed using rubber cement. Once rubber cement solidified, genomic DNA and probes were denatured at 78° C. for 5 minutes and slides were incubated at 16° C. in the dark O/N. The coverslip was removed from slide and incubated in pre-warmed Wash buffer 1 (Agilent, G9401A) at 73° C. for 2 minutes and in Wash Buffer 2 (Agilent, G9402A) for 1 minute at RT. […]
For analysis of RNA FISH with immunofluorescence custom in-house MATLAB™ scripts were written to process and analyze 3D image data gathered in FISH (RNA/DNA) and IF channels. […] The IF signal centered at FISH foci for each FISH and IF pair are then combined and an average intensity projection is calculated, providing averaged data for IF signal intensity within a l×l square centered at FISH foci. […]

CC[C@H](C(=O)N1CCCC[C@H]1C(=O)O[C@H](CCc1ccc(OC)c(OC)c1)c1ccccc1OCC(=O)NCCCCCCCCNc1ccc2c(c1)C(=O)N(C1CCC(=O)NC1=O)C2=O)c1cc(OC)c(OC)c(OC)c1 (some centres unmarked) [dTag]
OCT4 and MED1 occupancy at enhancers (SEs versus TEs) (OCT4 (FKBP-tagged) [1]): reduction of OCT4 and MEM occupancy at enhancers, with the most profound effects occurring at SEs
MED1 condensates at Nanog (OCT4 (FKBP-tagged) [2]): reduction in MED1 condensates at Nanog
